Our source for the EC50 values is US20240116912A1, “COMPOUNDS AND METHODS FOR MODULATING FXR” (Terns Pharmaceuticals, Inc., priority 2020, published 2024).

Experiment [1] deals with ligand binding domain (LBD) of recombinant human FXR (Homo sapiens (Human), UniProt Q96RI1). Put plainly: FXR cell free coactivator (SRC-1) recruitment assay, TR-FRET. As to conditions: FXR LBD (amino acids 244-476) with labeled SRC-1 domain, 25° C. for 60 minutes, activity relative to CDCA maximum; read-out: EC50 FXR- Biochemical TR-FRET/μM. On the procedure: A cell free coactivator recruitment assay was developed for FXR, to measure the functional potency of novel FXR compounds. In this assay, novel FXR compounds were bound to the ligand binding domain (LBD) of recombinant human FXR. The ability of this liganded homodimeric complex to recruit the co-activator protein steroid receptor coactivator 1 (SRC-1) was measured using Time-Resolved Fluorescence Resonance Energy Transfer (TR-FRET).
Sequence of ligand binding domain (LBD) of recombinant human FXR (Q96RI1 254-486): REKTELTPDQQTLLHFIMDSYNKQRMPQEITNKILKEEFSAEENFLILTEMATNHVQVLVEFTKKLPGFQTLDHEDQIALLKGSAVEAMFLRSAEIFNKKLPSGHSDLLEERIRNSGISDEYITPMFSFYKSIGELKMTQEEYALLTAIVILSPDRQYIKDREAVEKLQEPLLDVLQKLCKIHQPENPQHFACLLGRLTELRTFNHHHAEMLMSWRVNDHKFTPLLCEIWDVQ
Sequence of ligand binding domain (LBD) of recombinant human FXR (Q15788 whole entry partner, the tested form may be a part): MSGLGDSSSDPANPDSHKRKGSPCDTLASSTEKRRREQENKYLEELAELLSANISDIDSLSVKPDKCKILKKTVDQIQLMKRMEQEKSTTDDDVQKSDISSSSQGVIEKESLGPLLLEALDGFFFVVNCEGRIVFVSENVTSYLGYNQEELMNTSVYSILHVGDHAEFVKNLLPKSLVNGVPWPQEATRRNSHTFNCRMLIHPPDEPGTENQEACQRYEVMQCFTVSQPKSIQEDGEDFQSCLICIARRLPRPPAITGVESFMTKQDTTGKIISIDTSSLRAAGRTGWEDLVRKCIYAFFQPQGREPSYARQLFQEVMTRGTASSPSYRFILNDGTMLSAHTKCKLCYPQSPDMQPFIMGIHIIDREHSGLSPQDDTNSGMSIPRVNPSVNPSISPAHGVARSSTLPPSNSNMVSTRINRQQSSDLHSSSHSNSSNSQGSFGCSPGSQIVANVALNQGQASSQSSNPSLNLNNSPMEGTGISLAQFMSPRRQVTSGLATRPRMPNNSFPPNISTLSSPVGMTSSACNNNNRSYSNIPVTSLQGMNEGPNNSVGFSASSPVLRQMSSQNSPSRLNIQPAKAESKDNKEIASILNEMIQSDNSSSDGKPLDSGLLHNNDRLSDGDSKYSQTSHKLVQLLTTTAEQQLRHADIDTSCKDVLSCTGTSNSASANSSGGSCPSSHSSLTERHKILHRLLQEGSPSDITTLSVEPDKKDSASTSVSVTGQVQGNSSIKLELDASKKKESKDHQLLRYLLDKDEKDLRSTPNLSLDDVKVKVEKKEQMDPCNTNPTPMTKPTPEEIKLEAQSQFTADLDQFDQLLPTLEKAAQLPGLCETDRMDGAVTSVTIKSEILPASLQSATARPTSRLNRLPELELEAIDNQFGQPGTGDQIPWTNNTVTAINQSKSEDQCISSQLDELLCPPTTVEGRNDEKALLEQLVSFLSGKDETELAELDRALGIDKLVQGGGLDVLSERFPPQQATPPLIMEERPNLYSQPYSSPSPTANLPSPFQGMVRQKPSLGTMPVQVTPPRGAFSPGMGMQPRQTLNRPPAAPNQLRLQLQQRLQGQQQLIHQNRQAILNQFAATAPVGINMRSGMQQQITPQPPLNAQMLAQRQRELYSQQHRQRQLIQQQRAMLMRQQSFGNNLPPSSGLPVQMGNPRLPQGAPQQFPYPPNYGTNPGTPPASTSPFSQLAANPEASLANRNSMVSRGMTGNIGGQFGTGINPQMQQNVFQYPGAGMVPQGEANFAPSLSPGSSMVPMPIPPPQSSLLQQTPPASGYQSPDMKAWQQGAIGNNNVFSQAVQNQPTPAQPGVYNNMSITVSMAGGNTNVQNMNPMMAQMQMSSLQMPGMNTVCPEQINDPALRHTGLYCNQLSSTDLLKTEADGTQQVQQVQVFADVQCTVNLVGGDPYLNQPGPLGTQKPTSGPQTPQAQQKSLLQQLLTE
The LBD of human FXR (amino acids 244-476) was cloned into an expression vector for protein expression in SF9 insect cells. Purified FXR LBD was incubated in TR-FRET coregulator buffer G (Eurofins) with test compounds (0-10 micromolar) and a labeled nuclear receptor interaction domain of SRC-1 at 25° C. for 60 minutes (final DMSO vehicle concentration was 1.2%). Assays were analyzed using an Envision TR-FRET reader (PerkinElmer Life and Analytical Sciences). Compound activity at each concentration was defined as a percentage of the maximal activity of the natural FXR ligand agonist chenodeoxycholic acid (CDCA) generating a dose response curve.

Experiment [2] concerns the target full length human FXR protein (Homo sapiens (Human), UniProt Q96RI1). Put plainly: FXR cellular assay (FXR-SRCP β-gal enzyme fragment complementation in CHO-K1 cells, chemiluminescence). The class given is cell-based. The following applies: CHO-K1 cells with SRCP-EA and ProLink-labeled FXR, 0-10 micromolar compound, 37° C. for 6h, read-out: EC50 FXR-cell Luminescence/. From the text: A cell based FXR assay was used to detect protein-protein interactions between an activated (ligand-bound), full length human FXR protein and a nuclear fusion protein containing a Steroid Receptor Coactivator Peptide (SCRP) domain. In this approach, two weakly complementing fragments of the 3-gal enzyme were expressed within stably transfected Chinese Hamster Ovary (CHO-K1) cells. The complementing fragments of the 3-gal enzyme (ProLink, PK; and Enzyme Acceptor, EA) were translationally fused to the C-terminus of a full-length FXR and to the SRCP, respectively. Complementation was driven by the protein-protein interaction between SRCP-EA and a ProLink-labeled FXR. Upon FXR-SRCP binding, the two fragments of 3-gal complement, forming a functional enzyme capable of hydrolyzing a substrate molecule and generating a chemiluminescent signal.
CHO-K1 cells containing SRCP-EA and ProLink-labeled FXR were plated in 384-well microplates and incubated at 37° C. overnight. A positive control FXR agonist, GW4064 (0-10 micromolar), or test compounds (0-10 micromolar) were added to plated cells and incubated at 37° C. for 6h (final DMSO vehicle concentration was 1%). The assay signal was generated by addition of 50% (v/v) detection reagent (19:5:1, cell assay buffer: substrate reagent 1: substrate reagent 2, DiscoverX) followed by incubation for 1h at ambient room temperature. Microplates were analyzed using an Envision reader (PerkinElmer Life and Analytical Sciences, Signal=chemiluminescence).

SMILES strings stand for the structures.

Sequence of full length human FXR protein (Q96RI1 whole entry, the tested form may be a part): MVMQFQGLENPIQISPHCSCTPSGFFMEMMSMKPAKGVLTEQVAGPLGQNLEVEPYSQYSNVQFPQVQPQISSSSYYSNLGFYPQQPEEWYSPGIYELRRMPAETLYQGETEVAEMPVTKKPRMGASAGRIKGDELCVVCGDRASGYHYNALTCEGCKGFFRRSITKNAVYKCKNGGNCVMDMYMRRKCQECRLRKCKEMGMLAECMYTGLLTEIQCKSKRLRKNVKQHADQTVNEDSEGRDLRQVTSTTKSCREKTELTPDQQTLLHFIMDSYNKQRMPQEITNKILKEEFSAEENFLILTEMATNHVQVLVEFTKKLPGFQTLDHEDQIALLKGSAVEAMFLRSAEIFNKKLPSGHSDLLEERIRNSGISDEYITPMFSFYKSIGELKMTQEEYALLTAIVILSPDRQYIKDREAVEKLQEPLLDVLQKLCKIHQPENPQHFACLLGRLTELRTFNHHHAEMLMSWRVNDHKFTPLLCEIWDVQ

On to `O=c1[nH]nc(-c2ccc(N3[C@@H]4CC[C@H]3C[C@@H](OCc3c(-c5ccccc5OC(F)(F)F)noc3C3CC3)C4)cc2)c(=O)[nH]1` [Example 67, 6-(4-((1R,3r,5S)-3-((5-cyclopropyl-3-(2-(trifluoromethoxy)phenyl)isoxazol-4-yl)methoxy)-8-azabicyclo[3.2.1]octan-8-yl)phenyl)-1,2,4-triazine-3,5(2H,4H)-dione], for which the EC50 was found to be 0.0127 µM in experiment [1] and 0.0657 µM in experiment [2].
On the same counts, the results for `O=c1[nH]c(-c2ccc(N3CCC(OCc4c(-c5c(Cl)cccc5Cl)noc4C4CC4)CC3)cc2F)no1` [Example 13, 3-(4-(4-((5-cyclopropyl-3-(2,6-dichlorophenyl)isoxazol-4-yl)methoxy)piperidin-1-yl)-2-fluorophenyl)-1,2,4-oxadiazol-5(4H)-one] are 0.0035 µM and 0.0823 µM.
On to `O=c1cc(-c2ccc(N3CCC(OCc4c(-c5ccccc5OC(F)(F)F)noc4C4CC4)CC3)cc2)o[nH]1` [Example 52, 5-(4-(4-((5-cyclopropyl-3-(2-(trifluoromethoxy)phenyl)isoxazol-4-yl)methoxy)piperidin-1-yl)phenyl)isoxazol-3(2H)-one], for which the EC50 in experiment [1] came out at 0.143 µM; in experiment [2], 1.63 µM.
Consider `O=c1[nH]c(-c2ccc(N3CCC(OCc4c(-c5ccccc5OC(F)(F)F)noc4C4CC4)C(F)(F)C3)nc2)no1` (stereo not shown) [Example 64, 3-(6-(4-((5-cyclopropyl-3-(2-(trifluoromethoxy)phenyl)isoxazol-4-yl)methoxy)-3,3-difluoropiperidin-1-yl)pyridin-3-yl)-1,2,4-oxadiazol-5(4H)-one], for which the EC50 came to 0.07 µM in experiment [1] and 2.31 µM in experiment [2].
As to `O=c1[nH]c(-c2cc(N3CCC(OCc4c(-c5c(Cl)cccc5Cl)noc4C4CC4)CC3)n[nH]2)no1` [Example 58, 3-(3-(4-((5-cyclopropyl-3-(2,6-dichlorophenyl)isoxazol-4-yl)methoxy)piperidin-1-yl)-1H-pyrazol-5-yl)-1,2,4-oxadiazol-5(4H)-one], the EC50 in experiment [1] turned out to be 0.421 µM; in experiment [2], 11.7 µM.
For `C[C@@H]1C[C@@H](OCc2c(-c3c(Cl)cccc3Cl)noc2C2CC2)CCN1c1ccc(-c2noc(=O)[nH]2)cc1` [Example 21, 3-(4-((2R,4S)-4-((5-cyclopropyl-3-(2,6-dichlorophenyl)isoxazol-4-yl)methoxy)-2-methylpiperidin-1-yl)phenyl)-1,2,4-oxadiazol-5(4H)-one], the EC50 in experiment [1] came out at 0.0793 µM; in experiment [2], 0.343 µM.
In the case of `O=c1[nH]c(-c2ncc(N3CCC(OCc4c(-c5c(Cl)cccc5Cl)noc4C4CC4)CC3)cn2)no1` [Example 8, 3-(5-(4-((5-cyclopropyl-3-(2,6-dichlorophenyl)isoxazol-4-yl)methoxy)piperidin-1-yl)pyrimidin-2-yl)-1,2,4-oxadiazol-5(4H)-one], the EC50 in experiment [1] is 0.0281 µM; in experiment [2], 2.11 µM.
Take `O=c1[nH]nc(-c2ccc(N3CCC(OCc4c(-c5c(Cl)cccc5Cl)noc4C4CC4)CC3)cn2)c(=O)[nH]1` [Example 46, 6-(5-(4-((5-cyclopropyl-3-(2,6-dichlorophenyl)isoxazol-4-yl)methoxy)piperidin-1-yl)pyridin-2-yl)-1,2,4-triazine-3,5(2H,4H)-dione]: the EC50 in experiment [1] was determined as 0.0746 µM; in experiment [2] it was 10 µM.
With `O=c1cc(-c2ccc(N3[C@@H]4CC[C@H]3C[C@@H](OCc3c(-c5ccccc5OC(F)(F)F)noc3C3CC3)C4)nc2)o[nH]1` [Example 69, 5-(6-((1R,3r,5S)-3-((5-cyclopropyl-3-(2-(trifluoromethoxy)phenyl)isoxazol-4-yl)methoxy)-8-azabicyclo[3.2.1]octan-8-yl)pyridin-3-yl)isoxazol-3(2H)-one], the results for the EC50 in experiment [1] and in experiment [2] were 0.0095 µM and 0.0576 µM, respectively.
In the same order, the values of `Cn1nc(N2CCC(OCc3c(-c4c(Cl)cccc4Cl)noc3C3CC3)CC2)cc1-c1noc(=O)[nH]1` [Example 70, 3-(3-(4-((5-cyclopropyl-3-(2,6-dichlorophenyl)isoxazol-4-yl)methoxy)piperidin-1-yl)-1-methyl-1H-pyrazol-5-yl)-1,2,4-oxadiazol-5(4H)-one] are 0.233 µM and above 10 µM.
For `O=c1[nH]c(-c2cc(N3CCC(OCc4c(-c5c(Cl)cccc5Cl)noc4C4CC4)CC3)no2)no1` [Example 42, 3-(3-(4-((5-cyclopropyl-3-(2,6-dichlorophenyl)isoxazol-4-yl)methoxy)piperidin-1-yl)isoxazol-5-yl)-1,2,4-oxadiazol-5(4H)-one], the EC50 in experiment [1] is 0.139 µM; in experiment [2] it was 10 µM.
Turning to `O=c1[nH]c(-c2cccc(N3CCC(OCc4c(-c5c(Cl)cccc5Cl)noc4C4CC4)CC3)c2)no1` [Example 7, 3-(3-(4-((5-cyclopropyl-3-(2,6-dichlorophenyl)isoxazol-4-yl)methoxy)piperidin-1-yl)phenyl)-1,2,4-oxadiazol-5(4H)-one], the results for the EC50 in experiment [1] and in experiment [2] were 0.105 µM and 1.23 µM, respectively.
On the same counts, the results for `O=c1[nH]c(-c2ccc(N3CCC(OCc4c(-c5c(Cl)cccc5Cl)noc4C4CC4)CC3)s2)no1` [Example 35, 3-(5-(4-((5-cyclopropyl-3-(2,6-dichlorophenyl)isoxazol-4-yl)methoxy)piperidin-1-yl)thiophen-2-yl)-1,2,4-oxadiazol-5(4H)-one] are 0.0435 µM and 0.324 µM.
In the case of `O=c1[nH]c(-c2ccc(N3[C@@H]4CC[C@H]3C[C@@H](OCc3c(-c5ccccc5OC(F)(F)F)noc3C3CC3)C4)cc2)no1` [Example 50, 3-(4-((1R,3r,5S)-3-((5-cyclopropyl-3-(2-(trifluoromethoxy)phenyl)isoxazol-4-yl)methoxy)-8-azabicyclo[3.2.1]octan-8-yl)phenyl)-1,2,4-oxadiazol-5(4H)-one], the EC50 in experiment [1] is 0.0032 µM; in experiment [2], 0.0538 µM.
In the same order, the values of `CCOc1cccc(F)c1-c1noc(C2CC2)c1COC1CCN(c2ccc(-c3noc(=O)[nH]3)cc2)CC1` [Example 27, 3-(4-(4-((5-cyclopropyl-3-(2-ethoxy-6-fluorophenyl)isoxazol-4-yl)methoxy)piperidin-1-yl)phenyl)-1,2,4-oxadiazol-5(4H)-one] are 0.227 µM and 0.96 µM.
In the same order, the values of `O=c1[nH]c(-c2ccc(N3CCC(OCc4c(-c5ccccc5OC(F)(F)F)noc4C4CC4)CC3)cc2)no1` [Example 36, 3-(4-(4-((5-cyclopropyl-3-(2-(trifluoromethoxy)phenyl)isoxazol-4-yl)methoxy)piperidin-1-yl)phenyl)-1,2,4-oxadiazol-5(4H)-one] are 0.0188 µM and 0.113 µM.
In the same order, the values of `O=c1[nH]nc(-c2ccc(N3CCC(OCc4c(-c5ccccc5OC(F)(F)F)noc4C4CC4)CC3)nc2)o1` [Example 61, 5-(6-(4-((5-cyclopropyl-3-(2-(trifluoromethoxy)phenyl)isoxazol-4-yl)methoxy)piperidin-1-yl)pyridin-3-yl)-1,3,4-oxadiazol-2(3H)-one] are 0.298 µM and 1.92 µM.
`O=c1[nH]nc(-c2ccc(N3CCC(OCc4c(-c5ccccc5OC(F)(F)F)noc4C4CC4)CC3)cc2)o1` [Example 51, 5-(4-(4-((5-cyclopropyl-3-(2-(trifluoromethoxy)phenyl)isoxazol-4-yl)methoxy)piperidin-1-yl)phenyl)-1,3,4-oxadiazol-2(3H)-one]: the EC50 in experiment [1] worked out at 0.325 µM; in experiment [2], 1.29 µM.
As for `O=c1[nH]c(-c2ccc(N3CCCC(OCc4c(-c5c(F)cccc5F)noc4C4CC4)CC3)cc2)no1` (stereo not shown) [Example 49, 3-(4-(4-((5-cyclopropyl-3-(2,6-difluorophenyl)isoxazol-4-yl)methoxy)azepan-1-yl)phenyl)-1,2,4-oxadiazol-5(4H)-one], the EC50 was found to be 0.0117 µM in experiment [1] and 0.149 µM in experiment [2].
On the same counts, the results for `O=c1[nH]c(-c2ccc(N3CCC(OCc4c(-c5c(F)cccc5F)noc4C4CC4)CC3)cc2)no1` [Example 26, 3-(4-(4-((5-cyclopropyl-3-(2,6-difluorophenyl)isoxazol-4-yl)methoxy)piperidin-1-yl)phenyl)-1,2,4-oxadiazol-5(4H)-one] are 0.111 µM and 0.562 µM.
